The source of these data is article PMC9675978 (The Journal of steroid biochemistry and molecular biology, 2022).

Positions count from the first letter of the chain named. Where a name gives a salt, the structure may show the parent alone.

The target in assay [1] is T1, AKR1C3 K104D (Homo sapiens, UniProt P42330, K104D).
T1 sequence (P42330 1-323 K104D): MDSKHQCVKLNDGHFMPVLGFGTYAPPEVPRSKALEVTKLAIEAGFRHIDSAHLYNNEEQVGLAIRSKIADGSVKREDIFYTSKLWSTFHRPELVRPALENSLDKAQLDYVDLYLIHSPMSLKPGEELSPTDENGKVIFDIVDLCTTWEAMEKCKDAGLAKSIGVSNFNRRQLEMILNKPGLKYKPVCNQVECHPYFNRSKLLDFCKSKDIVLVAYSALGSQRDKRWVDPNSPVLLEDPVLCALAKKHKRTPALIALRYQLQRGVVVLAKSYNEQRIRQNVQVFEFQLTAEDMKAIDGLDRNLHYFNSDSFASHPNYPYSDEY
Description: Specific activity after preincubation at 37 °C with cofactor. The format is biochemical. As to conditions: alone roughly 50%.

A further assay concerns the target T2, AKR1C3 WT (Homo sapiens, UniProt P42330).
T2 sequence (P42330 1-323): T1 sequence (P42330 1-323 K104D) with D104K
Description: Kd for NAD. The format is binding. As to conditions: read-out: Kd NADP+, 0.5 μM protein, pH 7.0, 25 °C, Morrison equation.

In assay [2] the target is T1, AKR1C3 K104D. Description: Kd for NAD. The assay is classed as binding. To be noted: read-out: Kd NADP+, 0.5 μM protein, pH 7.0, 25 °C, Morrison equation.
The target of a further assay is T3, AKR1C3 H5Q (Homo sapiens, UniProt P42330, H5Q).
T3 sequence (P42330 1-323 H5Q): T1 sequence (P42330 1-323 K104D) with H5Q, D104K
Description: Kd for NAD. The format is binding. To be noted: read-out: Kd NADP+, 0.5 μM protein, pH 7.0, 25 °C, Morrison equation.

Another assay deals with T4, AKR1C3 E77G (Homo sapiens, UniProt P42330, E77G).
T4 sequence (P42330 1-323 E77G): T1 sequence (P42330 1-323 K104D) with E77G, D104K
Description: Kd for NAD. The assay is classed as binding. To be noted: read-out: Kd NADP+, 0.5 μM protein, pH 7.0, 25 °C, Morrison equation.

The next assay relates to AKR1C3. To be noted: cited from earlier work.

As to `NC(=O)c1ccc[n+]([C@@H]2O[C@H](COP(=O)([O-])OP(=O)(O)OC[C@H]3O[C@@H](n4cnc5c(N)ncnc54)[C@H](O)[C@@H]3O)[C@@H](O)[C@H]2O)c1` [NAD+, nicotinamide adenine dinucleotide Grade II free acid], the “K104D activity remaining (% of activity at 0 min)” value on AKR1C3 K104D [1] (K104D preincubated at 37 °C with 2 mM NAD+, four hours) was “roughly 75%”.
`NC(=O)c1ccc[n+]([C@@H]2O[C@H](COP(=O)([O-])OP(=O)(O)OC[C@H]3O[C@@H](n4cnc5c(N)ncnc54)[C@H](OP(=O)(O)O)[C@@H]3O)[C@@H](O)[C@H]2O)c1` [NADP+, nicotinamide adenine dinucleotide phosphate oxidized disodium salt]: the “K104D activity remaining (% of activity at 0 min)” value on AKR1C3 K104D [1] (K104D preincubated at 37 °C with 2 mM NADP+, over four hours) amounted to 100%. The Kd (as a rule, the equilibrium constant for the complex coming apart) on AKR1C3 WT is 110 ± 17 nM; at AKR1C3 K104D [2], 100 ± 47 nM; on AKR1C3 H5Q, 120 ± 33 nM; on AKR1C3 E77G, 120 ± 35 nM. Moreover, in the assay with AKR1C3, the “binding affinity of NADP+ relative to NAD+” value is on record as around 1000 times.
